A word on the IC50: it is the concentration at which inhibition is half-maximal. A lower IC50 goes with inhibition by little substance.

One assay concerns the target T1, PTP-1B (Homo sapiens, UniProt P18031).
T1 construct: PTP-1B (purified, 1 mg/mL) as a 1:250 dilution
T1 sequence (P18031 1-321 limits assumed): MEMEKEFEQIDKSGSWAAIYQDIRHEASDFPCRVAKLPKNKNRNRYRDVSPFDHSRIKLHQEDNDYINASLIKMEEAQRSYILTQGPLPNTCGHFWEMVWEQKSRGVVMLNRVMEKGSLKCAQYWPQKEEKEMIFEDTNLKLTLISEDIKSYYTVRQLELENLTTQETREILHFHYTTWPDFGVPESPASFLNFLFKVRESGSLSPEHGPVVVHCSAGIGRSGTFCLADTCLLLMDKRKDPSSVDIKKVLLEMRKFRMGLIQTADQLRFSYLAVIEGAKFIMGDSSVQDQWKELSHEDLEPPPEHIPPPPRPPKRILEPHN
Description: pNPP assay for tyrosine phosphatase inhibitory activity. Particulars: Table 1; pNPP substrate 10 mM, 30° C., 10 minutes, absorbance at 405 nm. The format is biochemical. As for the experimental part:
The compounds provided herein are evaluated for biological activity as inhibitors of PTP-1B using, for example, a pNPP assay. Such an assay can be used to screen compounds for tyrosine phosphatase inhibitory activity as shown in Example 39.
A 5× stock of pNPP (p-nitrophenol phosphate) substrate is prepared as 50 mM pNPP in assay buffer. Various tyrosine phosphatase solutions can be prepared as follows: • PTP-1B (purified, 1 mg/mL) as a 1:250 dilution (to a final concentration of 4:g/mL); • TC-PTP (NEB, 1000 units in 100:L) as a 1:50 dilution (to a final concentration of 2 U/10:L (4:g/mL)); • CD45 (Calbiochem, 20:g, 400 units in 100: L) as a 1 :50 dilution (to a final concentration of 0.8 U/10:L (4:g/mL)); • LAR (NEB, 1000 units in 200:L) as a 1:75 dilution (to a final concentration of 0.7 U/10:L (4:g/mL)); and • PTP-β (UBI, #14-350, 10,000 units, 40:g/571:L) as a 1:17.5 dilution (to a final concentration of 10 U/10:L (4:g/mL));
The compound to be tested is prepared as 1:16.7 and 1:50 dilutions from stock in a total volume of 1 00:M DMSO to give final concentrations of 626 and 200:M. The reaction mixtures are prepared in a 96-well microtiter plate (on ice) as 55:L assay buffer, 5:L of the diluted compound (to a final concentration of 31.3 and 10:M), 20:L of the pNPP substrate solution (to a final concentration of 10 mM) and 20:L PTPase in assay buffer. The reactants are mixed well, the plate placed in a water bath at 30° C. and incubated for 10 minutes. The reaction is then terminated by adding 1 OO:L of 2M K2CO3 per well, and the absorbance is measured at 405 nm by conventional means.
Unless otherwise indicated, this assay was used to determine activity for the selected compounds whose activity is recorded in Table 1 and Table 2.
The compound `COC(=O)c1ccccc1Oc1cccc(-c2cnc(N(Cc3ccc(C(F)(F)P(=O)(O)O)c(Br)c3)c3ccc(Cl)c(Cl)c3)o2)c1` [Example 14, 2-(3-{2-[[3-Bromo-4-(difluoro-phosphono-methyl)-benzyl]-(3,4-dichloro-phenyl)amino]-oxazol-5-yl}-phenoxy)-benzoic acid methyl ester] came in with an IC50 of 1000 to 10000 nM.

Take `COC(=O)c1ccc(-c2cnc(N(Cc3ccc(C(F)(F)P(=O)(O)O)c(Br)c3)c3ccccc3)o2)cc1` [Example 4, 4-(2-{[3-Bromo-4-(difluoro-phosphono-methyl)-benzyl]-phenyl-amino}-oxazol-5-yl)-benzoic acid methyl ester]: the half-maximal inhibitory concentration (IC50) was in the range of 1000 to 10000 nM. The same measure, in the same setting: in the case of `O=C(O)c1ccc(Oc2ccc(-c3cnc(N(Cc4ccc(C(F)(F)P(=O)(O)O)c(Br)c4)c4ccc(Cl)c(Cl)c4)o3)cc2)cc1` [Example 12, 4-(4-{2-[[3-Bromo-4-(difluoro-phosphono-methyl)-benzyl]-(3,4-dichloro-phenyl)-amino]-oxazol-5-yl}-phenoxy)-benzoic acid] it was 100 to 500 nM; in that of `O=C(O)c1ccccc1-c1ccc(-c2cnc(N(Cc3ccc(C(F)(F)P(=O)(O)O)c(Br)c3)c3ccc(Cl)c(Cl)c3)o2)cc1` [Example 17, 4′-{2-[[3-Bromo-4-(difluoro-phosphono-methyl)-benzyl]-(3,4-dichloro-phenyl)-amino]-oxazol-5-yl}-biphenyl-2-carboxylic acid], 100 to 500 nM. On the same count and under the same terms, the value for `O=C(O)C(Oc1cccc(-c2cnc(N(Cc3ccc(C(F)(F)P(=O)(O)O)c(Br)c3)c3ccc(Cl)c(Cl)c3)o2)c1)c1ccccc1` (stereo not shown) [Example 16, (3-{2-[[3-Bromo-4-(difluoro-phosphono-methyl)-benzyl]-(3,4-dichloro-phenyl)-amino]-oxazol-5-yl}-phenoxy)-phenyl-acetic acid] was below 100 nM; that for `CS(=O)(=O)c1ccc(-c2cnc(N(Cc3ccc(OCC(=O)O)c(Br)c3)c3ccc(Cl)c(Cl)c3)o2)cc1` [[2-Bromo-4-({(3,4-dichloro-phenyl)-[5-(4-methanesulfonyl-phenyl)-oxazol-2-yl]-amino}-methyl)-phenoxy]-acetic acid] was 10000 to 100000 nM; that for `CCOP(=O)(OCC)C(F)(F)c1ccc(CN(c2ccc(Cl)c(Cl)c2)c2ncc(-c3ccc(Oc4ccc(C(=O)OC)cc4)cc3)o2)cc1Br` [Example 7, 4-(4-{2-[{3-Bromo-4-[(diethoxy-phosphoryl)-difluoro-methyl]-benzyl}-(3,4-dichloro-phenyl)-amino]-oxazol-5-yl}-phenoxy)-benzoic acid methyl ester] was 10000 to 100000 nM. `CS(=O)(=O)c1ccc(-c2cnc(N(Cc3ccc(C(F)(F)P(=O)(O)O)c(Br)c3)c3ccc(Cl)c(Cl)c3)o2)cc1` [Example 6, {[2-Bromo-4-({(3,4-dichloro-phenyl)-[5-(4-methanesulfonyl-phenyl)-oxazol-2-yl]-amino}-methyl)-phenyl]-difluoro-methyl}-phosphonic acid] returned an IC50 below 100 nM. In the case of `CS(=O)(=O)c1ccc(-c2cnc(N(Cc3ccc(C(F)(F)C(=O)O)cc3)c3ccc(Cl)c(Cl)c3)o2)cc1` [[4-({(3,4-Dichloro-phenyl)-[5-(4-methanesulfonyl-phenyl)-oxazol-2-yl]-amino}-methyl)-phenyl]-difluoro-acetic acid], the half-maximal inhibitory concentration (IC50) is 10000 to 100000 nM. `CC(C)(C)C(=O)OCOP(=O)(O)C(F)(F)c1ccc(CN(c2ccc(Cl)c(Cl)c2)c2ncc(-c3ccc(S(C)(=O)=O)cc3)o2)cc1Br` [Example 11, 2,2-Dimethyl-propionic acid {[2-bromo-4-({(3,4-dichloro-phenyl)-[5-(4-methanesulfonyl-phenyl)-oxazol-2-yl]-amino}-methyl)-phenyl]-difluoro-methyl}-hydroxy-phosphinoyloxymethyl ester] registered an IC50 of 10000 to 100000 nM.

Still in this assay, the particulars now being: Table 2; pNPP substrate 10 mM, 30° C., 10 minutes, absorbance at 405 nm.
Regarding `CCOC(=O)C(C)NP(=O)(O)C(F)(F)c1ccc(CN(c2ccc(Cl)c(Cl)c2)c2ncc(-c3ccc(S(C)(=O)=O)cc3)o2)cc1Br` [Example 34, {[2-Bromo-4-({(3,4-dichloro-phenyl)-[5-(4-methanesulfonyl-phenyl)-oxazol-2-yl]-amino}-methyl)-phenyl]-difluoro-methyl}-phosphonic acid mono-(L-alanylethyl ester) amidate], the IC50 fell in the range of 100 to 500 nM. Regarding `O=C(O)c1ccccc1-c1ccc(-c2cnc(N(Cc3ccc(C(F)(F)P(=O)(O)O)c(Br)c3)c3ccc(Cl)cc3)o2)cc1` [Example 29, 4′-{2-[[3-Bromo-4-(difluoro-phosphono-methyl)-benzyl]-(4-chlorophenyl)-amino]-oxazol-5-yl}-biphenyl-2-carboxylic acid], the IC50 was 100 to 500 nM. Same read-out and setting: in the case of `NC(=O)c1ccc(-c2cnc(N(Cc3ccc(C(F)(F)P(=O)(O)O)c(Br)c3)c3ccc(F)cc3)o2)cc1` [Example 37, [(2-Bromo-4-{[[5-(4-carbamoyl-phenyl)-oxazol-2-yl]-(4-fluoro-phenyl)-amino]-methyl}-phenyl)-difluoro-methyl]-phosphonic acid] it was 100 to 500 nM; in that of `CC(C)OC(=O)OC(C)OP(=O)(O)C(F)(F)c1ccc(CN(c2ccc(F)cc2)c2ncc(-c3ccc(S(C)(=O)=O)cc3)o2)cc1Br` (stereo not shown) [{[2-Bromo-4-({(4-fluoro-phenyl)-[5-(4-methanesulfonyl-phenyl)-oxazol-2-yl]-amino}-methyl)-phenyl]-difluoro-methyl}-phosphonic acid mono-(1-isopropoxycarbonyloxy-ethyl) ester], 10000 to 100000 nM. The same measure, in the same setting: in the case of `COc1ccccc1N(Cc1ccc(C(F)(F)P(=O)(O)O)c(Cl)c1)c1ncc(-c2ccc(S(C)(=O)=O)cc2)o1` [[(2-Chloro-4-{[[5-(4-methanesulfonyl-phenyl)-oxazol-2-yl]-(2-methoxy-phenyl)-amino]-methyl}-phenyl)-difluoro-methyl]-phosphonic acid] it was 500 to 1000 nM; in that of `O=C(O)c1ccccc1-c1ccc(-c2cnc(N(Cc3ccc(C(F)(F)P(=O)(O)O)c(Cl)c3)c3ccc(Cl)cc3)o2)cc1` [Example 30, 4′-{2-[[3-Chloro-4-(difluoro-phosphono-methyl)-benzyl]-(4-chlorophenyl)-amino]-oxazol-5-yl}-biphenyl-2-carboxylic acid], 100 to 500 nM; in that of `CS(=O)(=O)c1ccc(-c2cnc(N(Cc3ccc(C(F)(F)P(=O)(O)Oc4ccccc4)c(Br)c3)c3ccc(F)cc3)o2)cc1` [{[2-Bromo-4-({(4-fluoro-phenyl)-[5-(4-methanesulfonyl-phenyl)-oxazol-2-yl]-amino}-methyl)-phenyl]-difluoro-methyl}-phosphonic acid monophenyl ester], 10000 to 100000 nM. Still for that read-out and setting: the value for `COCCCN(Cc1ccc(C(F)(F)P(=O)(O)O)c(Br)c1)c1ncc(-c2ccc(S(C)(=O)=O)cc2)o1` [[(2-Bromo-4-{[[5-(4-methanesulfonyl-phenyl)-oxazol-2-yl]-(3-methoxy-propyl)-amino]-methyl}-phenyl)-difluoro-methyl]-phosphonic acid] was 100 to 500 nM; that for `O=C(O)c1ccccc1-c1ccc(-c2cnc(N(Cc3ccc(C(F)(F)P(=O)(O)O)c(Br)c3)c3ccccc3)o2)cc1` [Example 27, 4′-{2-[[3-Bromo-4-(difluoro-phosphono-methyl)-benzyl]-phenyl-amino]-oxazol-5-yl}-biphenyl-2-carboxylic acid] was 100 to 500 nM.

(Values after patent US20060135483A1, “Oxygen/nitrogen heterocycle inhibitors of tyrosine phosphatases” (priority 2004, published 2006).)
